Measurements: patent US20230131929A1, “QUINOLINE COMPOUNDS FOR TREATING RESPIRATORY DISORDERS AND VIRAL INFECTIONS” (Aldeyra Therapeutics, Inc., priority 2020, published 2023)

Legend:
[1] = clinical trials; cited from earlier work
leukocyte migration = experiment: LPS-induced acute lung injury model (preclinical ARDS model); assay type: in vivo; details: administered IP
Excerpt: In the bottom panel, the effect of test compounds on leukocyte migration is shown in the model. […] Free RASP are toxic, leading to inflammation and molecular dysfunction by covalently binding to cellular biomolecules, and have been linked to systemic immune-mediated and inflammatory diseases, such as NASH, inflammatory bowel disease (IBD), and other diseases. […]

rodent models of NASH = assay type: in vivo; details: three different rodent models of NASH
Excerpt: (§1) These cytokines and chemokines affect Th1, Th2, and Th17 pathways, all of which are important in immune homeostasis and disease (Kaiko et al., Immunology 123:326-338, 2007. DOI 10.1111/j.1365-2567.2007.02719.x.; Weaver et al., Annu. Rev. Pathol 8:477-512, 2013. DOI 10.1146/annurev-pathol-011110-130318).

[2] = dextran sulfate sodium (DSS)-induced mouse model of UC; assay type: in vivo
Excerpt: as §1

[3] = tested on: inflammatory cytokines and chemokines; experiment: LPS-induced mouse model of acute sepsis, plasma cytokine profile; assay type: in vivo; details: for IL-10 plasma level, significance of effect: anti-inflammatory cytokine, release facilitated
Experimental: FIG. 4 and FIG. 5 show the effect of compound I-1 on levels of various inflammatory cytokines in a preclinical sepsis model. In the study, lipopolysaccharide (LPS) was administered IP to mice. 30 minutes later, I-1 was administered IP or PO. Mice were sacrificed after 2 hours, and their plasma submitted for cytokine profile analysis. IP=intraperitoneally; PO=orally; mpk=mg per kg. […]
FIG. 4 and FIG. 5 show the effect of compound I-1 on levels of various inflammatory cytokines in a preclinical sepsis model. In the study, lipopolysaccharide (LPS) was administered IP to mice. 30 minutes later, I-1 was administered IP or PO. Mice were sacrificed after 2 hours, and their plasma submitted for cytokine profile analysis. IP=intraperitoneally; PO=orally. As shown in the table below, I-1 decreased several pro-inflammatory cytokines. * P≤0.05; ** P≤0.01; *** P≤0.001; **** P≤0.0001.

[4] = LPS-induced acute lung injury model
[5] = 100 mpk IP 30 min after LPS IP, mice, plasma after 2 hours
[6] = 400 mpk PO 30 min after LPS IP, mice, plasma after 2 hours
[7] = LPS-induced mouse model of acute sepsis

SMILES: CC(C)(O)c1nc2ccc(Cl)cc2cc1N [I-2, reproxalap]
- effect in treating ocular inflammation [1]: beneficial effects
- infiltrating cells (leukocyte migration; [4]): decreased infiltrating cells
- lung function (leukocyte migration; [4]): improved lung function
- activity in LPS-induced acute lung injury model (leukocyte migration; compared with saline and dexamethasone): promising activity

SMILES: CC(C)(O)c1nc2ccccc2cc1N [I-1]
- circulating markers of liver function and inflammation (liver inflammation, steatosis, hepatocyte ballooning, fibrosis) (rodent models of NASH): may have beneficial effects
- disease parameters (body weight loss, disease activity score, colon length, colon edema, colon inflammation) [2]: improved several disease parameters
- GM-CSF plasma level, significance of effect [3, 5]: * (* P≤0.05)
- IFNγ plasma level, significance of effect [3, 5]: *** (*** P≤0.001)
- IL-1β plasma level, significance of effect [3, 5]: ** (** P≤0.01)
- IL-5 plasma level, significance of effect [3, 5]: **** (**** P≤0.0001)
- IL-7 plasma level, significance of effect [3, 5]: ** (** P≤0.01)
- IL-12 (p40) plasma level, significance of effect [3, 5]: *** (*** P≤0.001)
- IL-17 plasma level, significance of effect [3, 5]: ** (** P≤0.01)
- M-CSF plasma level, significance of effect [3, 5]: * (* P≤0.05)
- MIP-1α plasma level, significance of effect [3, 5]: ** (** P≤0.01)
- MIP-1β plasma level, significance of effect [3, 5]: ** (** P≤0.01)
- MIP-2 plasma level, significance of effect [3, 5]: ** (** P≤0.01)
- TNFα plasma level, significance of effect [3, 5]: * (* P≤0.05)
- VEGF plasma level, significance of effect [3, 5]: * (* P≤0.05)
- IL-10 plasma level, significance of effect [3, 5]: ** (** P≤0.01)
- IFNγ plasma level, significance of effect [3, 6]: *** (*** P≤0.001)
- IL-1β plasma level, significance of effect [3, 6]: ** (** P≤0.01)
- IL-5 plasma level, significance of effect [3, 6]: **** (**** P≤0.0001)
- IL-7 plasma level, significance of effect [3, 6]: * (* P≤0.05)
- IL-12 (p40) plasma level, significance of effect [3, 6]: **** (**** P≤0.0001)
- IL-15 plasma level, significance of effect [3, 6]: ** (** P≤0.01)
- IL-17 plasma level, significance of effect [3, 6]: * (* P≤0.05)
- M-CSF plasma level, significance of effect [3, 6]: *** (*** P≤0.001)
- MCP-1 plasma level, significance of effect [3, 6]: ** (** P≤0.01)
- MIP-1α plasma level, significance of effect [3, 6]: * (* P≤0.05)
- MIP-1β plasma level, significance of effect [3, 6]: * (* P≤0.05)
- IL-10 plasma level, significance of effect [3, 6]: ** (** P≤0.01)
- release of inflammatory cytokines and chemokines [3, 7]: inhibit the release
- release of the anti-inflammatory cytokine interleukin (IL)-10 [3, 7]: facilitate the release
